# Assay results published in patent US9242944B2 (UNIVERSITY OF MARYLAND, BALTIMORE, priority 2013, dated 2016).
# Entries after “also recorded” stand apart in the source; their conditions may differ. Where two headings read alike, the source gives them in different places.
# Columns and labels:
# c-Myc-Max heterodimers = molecular target: T1, c-Myc-Max heterodimers (Homo sapiens, UniProt P01106); experiment: Electrophoretic mobility shift assay (EMSA) of c-Myc-Max dimerization and DNA binding
# T1 construct: c-Myc bHLH-ZIP domain (residues 353-437); His6-TEV protease substrate tag; made in house; host or cells: bacteria (pET151 vector for Myc)
# Description: The ability of a small-molecule to interfere with c-Myc-Max dimerization is conveniently assessed through the disruption of the c-Myc-Max/DNA ternary complex by an electrophoretic mobility shift assay (EMSA) using fluorescently-labelled DNA, and subsequently quantified by densitometry.(23) Accordingly, a 100-member library was screened for the ability to disrupt the c-Myc-Max dimer.
# These were performed essentially as described previously (23). Briefly, Ni^+-agarose-purified His6-tagged c-Myc bHLH-ZIP domain (residues 353-437) was used for all binding assays as was the His6-tagged 151 residue isoform of Max, otherwise referred to as Max(S) (residues 2-151) (21). For each binding reaction, the proteins were allowed to heterodimerize at a concentration of 30 nM each in the presence of 20 nM of a 5′-HEX-tagged double-stranded 22-base pair oligonucleotide 5′-hexachlorofluoresceine-[…]-3′ (SEQ ID NO: 1) containing a consensus c-Myc binding site (CACGTG) and the indicated concentration of small molecule inhibitor. Control reactions contained the same oligonucleotide in the presence of 60 nM of the 160 residue isoform of Max referred to as Max(L) (21). All binding reactions were prepared in a buffer consisting of PBS (pH 7.3), 1 mmol/L EDTA, 0.1% NP40, 5% glycerol, 1 mmol/L DTT, and 0.4 mg/mL bovine serum albumin. Electrophoresis was performed on 8% polyacrylamide/bisacrylamide (80:1) gels in […] (23). Each reaction was run on at least three separate occasions.
# EMSAs were performed essentially as described utilizing bacterially-expressed recombinant proteins purified nearly to homogeneity.(23) Experiments with Max homodimers used the His6-tagged 160 amino acid isoform of the protein, termed Max(L), which homodimerizes and binds DNA well. For studies with Myc-Max heterodimers, the His6-tagged 151 residue isoform of Max [Max(S)] was used, which binds DNA well as a heterodimer with Myc but poorly as a homodimer.(23) Recombinant Myc protein, expressed in the pET151 vector, consisted of the His6-TEV protease substrate-tagged 85 amino acid bHLH-ZIP domain. (23) Each protein was purified by Ni-agarose affinity chromatography as previously described. (23) The His6-TEV tag was removed from the Myc protein by TEV protease cleavage followed by re-purification using Ni-agarose affinity chromatography to remove the His6-TEV protease and the cleaved His6-TEV tag as previously described. Binding assays were performed with 30 nM of each protein and 30 nM of a 6-carboxy-2′,4,4′,5′,7,7′-hexachlorofluorescein (HEX)-tagged double-stranded oligonucleotide containing a consensus Myc binding site (IDT, Coralville, Iowa).(23)
# Max-Max homodimers = molecular target: T2, Max-Max homodimers (Homo sapiens, UniProt P61244); experiment: EMSA of Max-Max homodimerization and DNA binding; conditions: for IC50: 50% inhibition of Max-Max dimerization and DNA binding in EMSAs
# T2 construct: His6; made in house; host or cells: bacteria
# HL60 cells = experiment: Growth inhibition (MTT assay) in HL60 cells; type: cell-based, human; conditions: for IC50: Homo sapiens, HL-60, MTT assay; for IC50 HL60: MTT assay
# Description: (§1) These were performed using HL60 human promyelocytic leukemia cells or Daudi Burkitt lymphoma cells essentially as described previously (23). Briefly, cells were seeded into 96 well dishes (5000 cells/well and 10,000 cells/well for HL60 and Daudi cells, respectively). Growth medium consisted of RPMI medium supplemented with Penicillin/Streptomycin, glutamine and 10% fetal bovine serum. The indicated concentrations of each compound were then added and 10-point growth inhibition assays were performed 3-5 days later using the MTT assay. Each point was performed in quadruplicate.
# (§2) Daudi Burkitt lymphoma and HL60 promyelocytic leukemia cells were maintained in RPMI medium supplemented with 10% fetal bovine serum.(23) For growth inhibition studies, 3×10^3 cells were seeded in 96 well plates in the presence of serial dilutions of each compound. A total of 10 dilutions, ranging from 0.1 to 50 μM were performed for each compound. Standard MTT assays (23) were used to quantify cell number 3-4 days later and compared to wells exposed to DMSO vehicle only.
# Daudi cells = experiment: Growth inhibition (MTT assay) in Daudi cells; type: cell-based; conditions: for IC50: Homo sapiens, Daudi
# Description: as §1, §2
# c-Myc-Max dimerization = molecular target: T3, c-Myc-Max dimerization (Homo sapiens, UniProt P01106); experiment: Co-immunoprecipitation (Co-IP) of c-Myc with Max in HL60 cells; type: cell-based
# T3 construct: endogenous in cells; host or cells: HL60
# Description: Co-IP assays were performed essentially as described previously.(23) Briefly, 5×10^6 HL60 cells (>90% viable) in log-phase growth were treated in suspension for 4-6 h with the stated concentration of 3jc48-3. As a negative control, samples exposed to DMSO vehicle only were included and processed in parallel. Treated cells were collected by centrifugation, washed twice in ice-cold PBS and lysed in IP Buffer. 300 μg of cleared lysate was then precipitated with a 1:200 dilution of anti-Max antibody(23) followed by subsequent precipitation with protein G-Sepharose using conditions recommended by the supplier (Santa Cruz Biotechnology, Inc. Santa Cruz, Calif.). The precipitate was washed three times in IP buffer, boiled in running buffer and resolved by 10% SDS-PAGE. After electrotransfer of the proteins to a PVDF membrane (Millipore Corp. Billercica, Mass.), the blot was probed with a 1:1000 dilution of anti-Myc monoclonal antibody (9E10, Santa Cruz Biotechnology, Santa Cruz, Calif.). Blots were developed using a Pierce ECL Plus enhanced chemiluminescence kit according to the directions of the supplier (Thermo-Fisher, Pittsburgh, Pa.).
# [1] = 50% inhibition of c-Myc-Max dimerization and DNA binding in EMSAs
# [2] = Table 10, 100 μM small-molecule, EMSA, read-out: % Inhibition of c-Myc-Max Dimerization
# [3] = 10-point serial dilution, quadruplicate, read-out: IC50 HL60
# [4] = 10-point serial dilution, quadruplicate
# [5] = 10-point serial dilution, quadruplicate, read-out: IC50 Daudi
# [6] = Table 11, 100 uM, EMSA, read-out: % Inhibition of c-Myc-Max Dimerization
# T1 sequence (P01106 368-452, one chain of several): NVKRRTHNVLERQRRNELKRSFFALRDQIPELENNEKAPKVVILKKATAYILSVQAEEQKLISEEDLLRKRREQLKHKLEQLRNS
# T2 sequence (P61244 whole entry): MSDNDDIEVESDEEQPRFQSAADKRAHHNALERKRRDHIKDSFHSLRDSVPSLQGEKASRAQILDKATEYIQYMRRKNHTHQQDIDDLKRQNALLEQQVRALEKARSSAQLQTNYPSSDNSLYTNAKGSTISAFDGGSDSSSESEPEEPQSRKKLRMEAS
# T3 sequence (P01106 16-454 limits assumed): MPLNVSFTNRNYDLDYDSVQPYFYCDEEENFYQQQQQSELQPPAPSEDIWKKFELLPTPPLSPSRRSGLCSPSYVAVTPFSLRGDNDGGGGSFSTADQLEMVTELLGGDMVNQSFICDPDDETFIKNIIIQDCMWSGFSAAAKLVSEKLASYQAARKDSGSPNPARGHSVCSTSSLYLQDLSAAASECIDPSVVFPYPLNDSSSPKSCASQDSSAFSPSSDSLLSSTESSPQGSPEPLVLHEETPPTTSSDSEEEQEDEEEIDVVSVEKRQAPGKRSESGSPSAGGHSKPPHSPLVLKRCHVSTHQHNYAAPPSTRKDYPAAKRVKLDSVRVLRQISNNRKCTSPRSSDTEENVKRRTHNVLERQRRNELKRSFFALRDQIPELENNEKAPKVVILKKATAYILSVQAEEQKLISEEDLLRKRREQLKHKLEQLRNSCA
IC50 (c-Myc-Max heterodimers; [1]) [µM],IC50 (Max-Max homodimers) [µM],IC50 (HL60 cells; [3]) [µM],IC50 HL60 (HL60 cells; [4]),IC50 Daudi (Daudi cells; [4]),IC50 (Daudi cells; [5]) [µM],inhibition at 100 µM (c-Myc-Max heterodimers; [6]) [%],SMILES,other results
> 100,> 100,> 100,inactive,inactive,> 100,–,"Cc1ccc(-c2cc(C(=O)O)ccc2Nc2ccc([N+](=O)[O-])c3nonc23)cc1 [Compound 3jc53-6, 4′-Methyl-6-((7-nitrobenzo[c][1,2,5]oxadiazol-4-yl)amino)-[1,1′-biphenyl]-3-carboxylic acid]",inhibition of c-Myc-Max dimerization in vitro (in words) (c-Myc-Max heterodimers; EMSA): inactive in vitro; inhibition at 100 µM (c-Myc-Max heterodimers; [2]): 16%
–,–,–,–,–,–,–,"O=C(OCC(F)(F)F)c1ccc(Nc2ccc([N+](=O)[O-])c3nonc23)cc1 [Compound 3jc91-7, Trifluoroethyl 4-((7-nitrobenzo[c][1,2,5]oxadiazol-4-yl)amino)benzoate]",disruption of c-Myc-Max dimerization in cells (co-IP) (c-Myc-Max dimerization): inhibit c-Myc-Max dimerization in cells
75,> 100,0.877 ± 0.07,–,–,0.5 ± 0.025,–,"COC(=O)c1ccc(Nc2ccc([N+](=O)[O-])c3nonc23)c(-c2ccc(C(F)(F)F)cc2)c1 [Compound 4jc23-4, Methyl 6-((7-nitrobenzo[c][1,2,5]oxadiazol-4-yl)amino)-4′-(trifluoromethyl)-[1,1′-biphenyl]-3-carboxylate]",inhibition at 100 µM (c-Myc-Max heterodimers; [2]): 74%; IC50 (HL60 cells; read-out: IC50 against HL60 cells): 0.877 µM; IC50 (Daudi cells; read-out: IC50 against Daudi cells): 0.5 µM
57.9,> 100,3.1 ± 0.3,single-digit micromolar,single-digit micromolar,5.1 ± 0.56,–,"O=C(Nc1ccccc1)c1ccc(Nc2ccc([N+](=O)[O-])c3nonc23)cc1 [JY-5-195, 4-((7-Nitrobenzo[c][1,2,5]oxadiazol-4-yl)amino)-N-phenylbenzamide]",–
71,> 100,5.3 ± 0.3,single-digit micromolar,single-digit micromolar,3.9 ± 0.4,–,"O=C(Nc1ccccc1C(F)(F)F)c1ccc(Nc2ccc([N+](=O)[O-])c3nonc23)cc1 [JY-5-261, 4-((7-Nitrobenzo[c][1,2,5]oxadiazol-4-yl)amino)-N-(2-(trifluoromethyl)phenyl)benzamide]",–
–,–,–,–,–,–,9,N#Cc1ccc(Nc2ccccc2-c2ccccc2)c(Cl)c1 [SF-3-083],–
–,–,–,–,–,–,0,NC(=O)c1ccc(Nc2ccccc2-c2ccccc2)cc1 [SF-3-093A],–
–,–,–,–,–,–,4,O=C(O)c1ccc(Nc2ccccc2-c2ccccc2)cc1 [SF-3-093B],–
–,–,–,–,–,–,0,Nc1ccc(Nc2ccccc2-c2ccccc2)cc1 [SF-3-098],–
–,–,–,–,–,–,0,O=[N+]([O-])c1ccc(Nc2ccccc2-c2ccccc2)cc1O [SF-3-101],–
–,–,–,–,–,–,0,NC(=O)c1cc([N+](=O)[O-])ccc1Nc1ccccc1-c1ccccc1 [SF-3-103A],–
84,> 100,> 100,inactive,inactive,> 100,≥ 33,"O=C(O)c1cc([N+](=O)[O-])ccc1Nc1ccccc1-c1ccccc1 [SF-3-103B, 2-([1,1′-biphenyl]-2-ylamino)-5-nitrobenzoic acid]",c-Myc-Max inhibitory potency relative to 10074-G5 (c-Myc-Max heterodimers; EMSA): nearly two-fold more potent
–,–,–,–,–,–,0,NC(=O)c1cc(Nc2ccccc2-c2ccccc2)ccc1[N+](=O)[O-] [SF-3-104A],–
–,–,–,–,–,–,0,COC(=O)c1ccc(Nc2ccccc2-c2ccccc2)cc1 [SF-3-105],–
–,–,–,–,–,–,0,COC(=O)c1cc([N+](=O)[O-])ccc1Nc1ccccc1-c1ccccc1 [SF-3-106],–
–,–,–,–,–,–,0,COC(=O)c1cc(Nc2ccccc2-c2ccccc2)ccc1[N+](=O)[O-] [SF-3-107],–
–,> 50,9.2 ± 0.78,single-digit micromolar,single-digit micromolar,2.5 ± 0.05,–,"O=C(Oc1ccccc1)c1ccc(Nc2ccc([N+](=O)[O-])c3nonc23)cc1 [SF-4-017, Phenyl 4-((7-nitrobenzo[c][1,2,5]oxadiazol-4-yl)amino)benzoate]",IC50 (c-Myc-Max heterodimers): 30 µM; disruption of c-Myc-Max dimerization in cells (co-IP) (c-Myc-Max dimerization): inhibit c-Myc-Max dimerization in cells

SMILES,IC50 (c-Myc-Max heterodimers; [1]) [µM],IC50 (Max-Max homodimers) [µM],IC50 (HL60 cells; [3]) [µM],IC50 HL60 (HL60 cells; [4]),IC50 Daudi (Daudi cells; [4]),IC50 (Daudi cells; [5]) [µM],inhibition at 100 µM (c-Myc-Max heterodimers; [6]) [%],other results
"O=C(O)c1ccc(Nc2ccc([N+](=O)[O-])c3nonc23)cc1 [JY-3-094, 4-((7-Nitrobenzo[c][1,2,5]oxadiazol-4-yl)amino)benzoic acid]",33,> 100,> 100,inactive,inactive,> 100,–,"c-Myc-Max inhibitory potency relative to 10074-G5 (c-Myc-Max heterodimers; EMSA): around five-fold as potent; inhibition of c-Myc-Max dimerization in vitro (in words) (c-Myc-Max heterodimers; EMSA): dose-dependent inhibition; selectivity for Myc-Max heterodimers over Max-Max homodimers (c-Myc-Max heterodimers; EMSA): greater than three-fold selectivity; also recorded: at least three-fold selective; Kd (c-Myc-Max heterodimers; EMSA dose-response (FIG. 4), read-out: Kd value, inhibition of Myc-Max dimerization): 33 µM; inhibition at 100 µM (c-Myc-Max heterodimers; read-out: % Inhibition of c-Myc-Max Dimerization, Table 10, 100 μM small-molecule, EMSA): 94%; inhibition at 100 µM (c-Myc-Max heterodimers; read-out: % Inhibition of c-Myc-Max Dimerization, Table 11, 100 uM, EMSA): 94%; inhibition at 100 µM (c-Myc-Max heterodimers; read-out: Inhibition at 100 μM (%), Table 1, 100 μM compound, Myc-Max/DNA band intensity relative to control): 93%; activity against Max-Max homodimers (Max-Max homodimers; EMSA, at 100 μM): no effect; also recorded: no activity"
